The test system of data set [1] is Mycobacterium tuberculosis. As to the kind of experiment: Antimicrobial activity against drug-susceptible Mycobacterium tuberculosis isolate by alamar blue assay. In kind it is functional. Background: Alamar Blue is a resazurin reagent that responds to reducing activity.
For data set [2], the system named is Mycobacterium tuberculosis. The experiment in a line: Antimicrobial activity against Mycobacterium tuberculosis H37Rv by alamar blue assay. In kind it is functional.
Data set [3] in a line: Cytotoxicity against african green monkey Vero cells. The following applies: chlorocebus sabaeus. In kind it is cell-based.

Values after ≈ are worked out from the molar mass of the structure shown.

For four compounds, MIC and GI50 results are on record in ChEMBL document CHEMBL1157956, “Aegicerin, the first oleanane triterpene with wide-ranging antimycobacterial activity, isolated from Clavija procera” (J Nat Prod, 2006).

A word on the MIC: it is the smallest concentration in the dilution series that meets the test's criterion for growth inhibition. As a reminder, the GI50 is the concentration that inhibits growth by half.

On to `CC1(C)CC[C@]23CO[C@@]4(CC[C@@H]5[C@@]6(C)CC[C@H](O)C(C)(C)[C@@H]6CC[C@@]5(C)[C@]4(C)C[C@H]2O)[C@@H]3C1` [PROTOPRIMULAGENIN A], for which the MIC in data set [1] and in data set [2] was 200 mg/L (≈ 436 µM) each time.
Take `CO[C@H]1/C=C/O[C@@]2(C)Oc3c(C)c(O)c4c(O)c(c(/C=N/N5CCN(C)CC5)c(O)c4c3C2=O)NC(=O)/C(C)=C\C=C\[C@H](C)[C@H](O)[C@@H](C)[C@@H](O)[C@@H](C)[C@H](OC(C)=O)[C@@H]1C` [RIFAMPIN]: the MIC in data set [1] and in data set [2] was 0.063 mg/L (≈ 0.0766 µM) throughout.
Turning to `NNC(=O)c1ccncc1` [ISONIAZID], the MIC in data set [1] and in data set [2] was 0.125 mg/L (≈ 0.911 µM) throughout.
`CC1(C)CC[C@]23CO[C@@]4(CC[C@@H]5[C@@]6(C)CC[C@H](O)C(C)(C)[C@@H]6CC[C@@]5(C)[C@]4(C)CC2=O)[C@@H]3C1` [AEGICERIN]: the MIC was found to be 1.6 mg/L (≈ 3.5 µM) in data set [1] and 3.1 mg/L (≈ 6.79 µM) in data set [2]. The GI50 in data set [3] is above 40 mg/L.
